Results: patent US20060211744A1, “3-Pyridinecarboxamide reduces nerve degeneration” (Children's Medical Center, priority 2005, published 2006)

Key:
Type in all cases: cell-based
[1] = system: superior sympathetic ganglia (SCGs) and other neuronal types expressing mutant Nmnat1; test: Axon degeneration induced by over-expression of mutant Nmnat1 in cultured neurons; conditions: no axotomy
Excerpt: We next examined whether decreasing neuronal NAD levels is sufficient to induce axon degeneration in intact neurons. By sequence alignment, a conserved (T/H)XGH motif has been identified in the N-terminus of all Nmnat proteins from different species (Saridakis et al., 2001). This motif likely represents a critical active site, as a mutant enzyme with a point mutation at the last amino acid (H to A) loses its catalytic activity but retains its ability to bind the nicotinamide mononucleotide (NMN) substrate (Saridakis et al., 2001). Thus, we made a mutant Nmnat1 in which the critical histidine residue at amino acid 24 in this active site motif was substituted with alanine. Since most of the NAD in mammalian cells, except for liver and kidney cells, is synthesized by recycling degraded NAD products such as nicotinamide via the salvage pathway (Shibata et al., 1991, Rongvaux et al., 2003), over-expressing this mutant Nmnat1 would be expected to sequester the limited substrates, thus decreasing cellular NAD levels. […] As a result, neurons expressing this mutant Nmnat1 developed signs of axon degeneration in the absence of axotomy, concomitant with decreases in neuronal NAD and ATP levels.
In addition, a caspase inhibitor Z-DEVD-fink also had no effect on the axon degeneration induced by this mutant Nmnat1 expression.

[2] = system: cultured DRG neurons (transected axons); test: Axon degeneration after transection of axons of cultured DRG neurons (Wallerian degeneration)
Protocol: As a first step in examining the role of NAD in Wallerian degeneration, we used an ultra-sensitive high-performance liquid chromatography (HPLC) method (Micheli and Sestini, 1997) to measure the concentration of NAD and its derivatives in degenerating axons. To do this, the acidic lysates were prepared from axonal segments collected at different time points after transecting the axons from cultured dorsal root ganglia (DRG) and resolved by reverse-phase chromatography. 2 hr after axotomy, when the transected axons were still morphologically indistinguishable from their uncut controls, NAD levels began to decrease. This NAD decrease continued over the course of degeneration, reaching about 50% at 4 hr post-axotomy, to almost undetectable levels by 6 hr after axotomy, when early morphological signs of degeneration began to develop. […] By a similar approach of alkaline extraction (Micheli and Sestini, 1997), it has been difficult for us to detect NADH in the axonal extracts, presumably due to the low abundance of NADH and the high NAD/NADH ratio reported in mammalian cells (Zhang et al., 2002, Kasischke et al., 2004, Kannurpatti et al., 2004).
To definitively determine whether preventing the local decrease in NAD levels could mediate axon protection, we employed soma-free axonal segments that have been separated from their soma as models to examine the protective effects of different pharmacological treatments. It has been shown that exogenously provided NAD, when directly added to the culture medium of DRG neurons, can be transported across the axonal membrane (Araki et al., 2004). Thus, we first examined the protective effects of different concentrations of NAD added to the culture before or after axon transection and removal of ganglia.
To further assess the local and nuclear contribution to such an NAD-dependent protection, we compared the protective effects of NAD provided at different time points. […] In this respect, our results are inconsistent with those shown by Araki et al (2004), possibly due to the different concentrations of NAD used in our studies (1-20 mM) and by Araki et al (0.1 to 1 mM).
We next attempted to explore the possible mechanisms underlying this local NAD-dependent axon protection. […] A possible explanation for this discrepancy between Araki et al (2004) and our results is the different approaches used to block Sirt1 activity. […] It is known that […], other sirturins exist and some of these proteins are localized in the cytoplasmic compartment (Onyango et al., 2002; North et al., 2003).

[3] = system: cultured hippocampal neurons; test: Synaptic loss and process degeneration in cultured hippocampal neurons (dominant-negative Nmnat1)
Excerpt: We next attempted to examine whether decreasing NAD levels can induce similar “dying-back” axon degeneration in neurons with established synaptic connections. Such experiments might allow us to assess whether the degenerative processes in axons and other neuronal structures, including synaptic structures and dendritic processes, share similar mechanisms. To do this, we introduced both wild type and dominant negative Nmnat1 into cultured hippocampal neurons at 20 days in vitro (DIV 20), when their synaptic connections have formed and matured (Brewer et al. 1993), and examined their effects on axons as well as dendrites and synapses. As a conventional approach to visualize these neuronal structures, we also co-infected the hippocampal neurons with HSV expressing YFP. […] Moreover, neuronal NAD levels declined from 24-48 hr post-infection with viruses expressing dominant-negative Nmnat1 but not wild type Nmnat1 or YFP. Thus, we decided to focus our analysis on the first 60 hours post-infection.
To monitor changes in synaptic structures, we co-infected DIV20 neurons with HSV expressing YFP and wild type or the mutant Nmnat1, and quantified both spine density and the length and branching of axons and dendrites. As the density of dendritic spines has been considered a reliable indicator for synapse number (reviewed by Hering and Sheng, 2001), we performed high-resolution YFP imaging in neurons co-expressing YFP and Nmnat1 proteins at the indicated time points post-infection to measure the spine densities in these co-infected neurons. Dendrite length and branching patterns were analyzed using Sholl's method of regularly spaced concentric circles centered on the neuronal soma (Sholl, 1953). […]
In the experiments described above, we also performed immunostaining with antibodies against the presynaptic marker bassoon, and found a decrease of positively-stained synaptic structures. However, due to the complex morphology of the axons that makes it extremely difficult to quantify the axonal length in DIV20 hippocampal neurons, we […]. […]

## COC(=O)CC[C@H](NC(=O)[C@H](CC(=O)OC)NC(=O)OCc1ccccc1)C(=O)N[C@H](C(=O)N[C@@H](CC(=O)OC)C(=O)CF)C(C)C [Z-DEVD-fink]
[1]
  axon degeneration induced by mutant Nmnat1 expression: no effect

## Oc1ccc(C=Cc2cc(O)cc(O)c2)cc1 [resveratrol]
[2]; a range of concentrations
  extent of axon degeneration: failed to observe any significant change
[3]; DIV20 hippocampal neurons
  changes (spine density, dendrites) induced by dominant-negative Nmnat1: did not affect the changes

## NC(=O)c1ccc[n+]([C@@H]2O[C@H](COP(=O)([O-])OP(=O)(O)OC[C@H]3O[C@@H](n4cnc5c(N)ncnc54)[C@H](O)[C@@H]3O)[C@@H](O)[C@H]2O)c1 [NAD, nicotinamide adenine dinucleotide]
[2]; added to culture medium of DRG neurons
  concentrations resulting in significant protective effects on axon degeneration: 1 to 20 mM

## CC(NC(=O)c1ccccc1/N=C/c1c(O)ccc2ccccc12)c1ccccc1 (stereo not drawn) [sirtinol]
[2]; sirturin inhibitors, nicotinamide at 50 μM
  attenuation of the protective effect of Nmnat1 or NAD: did not attenuate the protective effect
[3]; from 50 to 100 μM, up to 72 hr
  dendritic spine quantity or structure, compound alone: did not induce significant changes
